Experimental data as given in patent US7799821B2, “Therapeutic compounds” (Allergan, Inc., priority 2004, dated 2010).
Like-named read-outs stand apart in the source and are kept apart here.

What was measured:
hEP2/Gqs5 = biological target: T1, hEP2/Gqs5 (Homo sapiens, UniProt P43116); experiment: FLIPR calcium signal, hEP2; type: cell-based
T1 construct: expressed in transfected cells; host or cells: HEK-293(EBNA)
Method: (§1) HEK-293(EBNA) cells, stably expressing one type or subtype of recombinant human prostaglandin receptors (prostaglandin receptors expressed: hDP/Gqs5; hEP1; hEP2/Gqs5; hEP3A/Gqi5; hEP4/Gqs5; hFP; hIP; hTP), were cultured in 100 mm culture dishes in high-glucose DMEM medium containing 10% fetal bovine serum, 2 mM 1-glutamine, 250 μg/ml geneticin (G418) and 200 μg/ml hygromycin B as selection markers, and 100 units/ml penicillin G, 100 μg/ml streptomycin and 0.25 μg/ml amphotericin B. • (b) Calcium Signal Studies on the FLIPR™
(§2) Cells were seeded at a density of 5×10^4 cells per well in Biocoat® Poly-D-lysine-coated black-wall, clear-bottom 96-well plates (Becton-Dickinson) and allowed to attach overnight in an incubator at 37° C. Cells were then washed two times with HBSS-HEPES buffer (Hanks Balanced Salt Solution without bicarbonate and phenol red, 20 mM HEPES, pH 7.4) using a Denley Cellwash plate washer (Labsystems). After 45 minutes of dye-loading in the dark, using the calcium-sensitive dye Fluo-4 AM at a final concentration of 2 μM, plates were washed four times with HBSS-HEPES buffer to remove excess dye leaving 100 μl in each well. Plates were re-equilibrated to 37° C. for a few minutes.
(§3) Cells were excited with an Argon laser at 488 nm, and emission was measured through a 510-570 nm bandwidth emission filter (FLIPR™, Molecular Devices, Sunnyvale, Calif.). Drug solution was added in a 50 μl volume to each well to give the desired final concentration. The peak increase in fluorescence intensity was recorded for each well. On each plate, four wells each served as negative (HBSS-HEPES buffer) and positive controls (standard agonists: BW245C (hDP); PGE2 (hEP1; hEP2/Gqs5; hEP3A/Gqi5; hEP4/Gqs5); PGF2α (hFP); carbacyclin (hIP); U-46619 (hTP), depending on receptor). The peak fluorescence change in each drug-containing well was then expressed relative to the controls.
(§4) Compounds were tested in a high-throughput (HTS) or concentration-response (CoRe) format. In the HTS format, forty-four compounds per plate were examined in duplicates at a concentration of 10^−5 M. To generate concentration-response curves, four compounds per plate were tested in duplicates in a concentration range between 10^−5 and 10^−11 M. The duplicate values were averaged. In either, HTS or CoRe format each compound was tested on at least 3 separate plates using cells from different passages to give an n≧3.

hEP4/Gqs5 = biological target: T2, hEP4/Gqs5 (Homo sapiens, UniProt P35408); experiment: FLIPR calcium signal, hEP4; type: cell-based
T2 construct: expressed in transfected cells; host or cells: HEK-293(EBNA)
Method: as §1, §2, §3, §4

human EP2 receptors = biological target: T3, human EP2 receptors (Homo sapiens, UniProt P43116); experiment: Competition radioligand binding ([3H]PGE2), EP2; details: for IC50: read-out: BINDING IC50 HEP2; for Ki: unit inferred, read-out: EP2 data Ki
T3 construct: expressed in transfected cells; host or cells: HEK 293
Method: Competition binding experiments were performed in a medium containing Hank's balanced salt solution, […], membranes (˜60 μg protein) or 2×10^5 cells from HEK 293 cells stably expressing human EP2 receptors, [^3H]PGE2 (10 nM) and various concentrations of test compounds in a total volume of 300 μl. Reaction mixtures were incubated at 23° C. for 60 min, and were filtered over Whatman GF/B filters under vacuum. Filters were washed three times with 5 ml ice-cold buffer containing 50 mM Tris/HCl (pH 7.3). Non-specific binding was estimated in the presence of excess unlabeled PGE2 (10 μM). Binding data fitted to the binding model for a single class of binding sites, using nonlinear regression analysis. IC50 values thus obtained were converted to Ki using the equation of Ki=(IC50/(1+[L]/KD) where [L] represents PGE2 concentration (10 nM) and KD the dissociation constant for [^3H]PGE2 at human EP2 receptors (40 nM).
(§5) HEK-293 cells stably expressing the human or feline FP receptor, or EP1, EP2, or EP4 receptors were washed with TME buffer, scraped from the bottom of the flasks, and homogenized for 30 sec using a Brinkman PT 10/35 polytron. TME buffer was added to achieve a final 40 ml volume in the centrifuge tubes (the composition of TME is 100 mM TRIS base, 20 mM MgCl2, […]; 10N HCl is added to achieve a pH of 7.4).
(§6) The cell homogenate was centrifuged at 19000 r.p.m. for 20 min at 4° C. using a Beckman Ti-60 rotor. The resultant pellet was resuspended in TME buffer to give a final 1 mg/ml protein concentration, as determined by Biorad assay. Radioligand binding competition assays vs. [^3H-]17 —phenyl PGF2α (5 nM) were performed in a 100 μl volume for 60 min. Binding reactions were started by adding plasma membrane fraction. The reaction was terminated by the addition of 4 ml ice-cold TRIS-HCl buffer and rapid filtration through glass fiber GF/B filters using a Brandel cell harvester. The filters were washed 3 times with ice-cold buffer and oven dried for one hour.
(§7) [^3H-] PGE2 (specific activity 180 Ci mmol) was used as the radioligand for EP receptors. [^3H] 17-phenyl PGF2α was employed for FP receptor binding studies. Binding studies employing EP1, EP2, EP4 and FP receptors were performed in duplicate in at least three separate experiments. A 200 μl assay volume was used. Incubations were for 60 min at 25° C. and were terminated by the addition of 4 ml of ice-cold 50 mM TRIS-HCl, followed by rapid filtration through Whatman GF/B filters and three additional 4 ml washes in a cell harvester (Brandel). Competition studies were performed using a final concentration of 5 nM [^3H]—PGE2, or 5 nM [^3H] 17-phenyl PGF2α and non-specific binding determined with 10^−5M of unlabeled PGE2, or 17-phenyl PGF2α, according to receptor subtype studied.

hEP3A/Gqi5 = biological target: T4, hEP3A/Gqi5 (Homo sapiens, UniProt P43115); experiment: FLIPR calcium signal, hEP3A; type: cell-based
T4 construct: expressed in transfected cells; host or cells: HEK-293(EBNA)
T4 sequence (P43115 1-390): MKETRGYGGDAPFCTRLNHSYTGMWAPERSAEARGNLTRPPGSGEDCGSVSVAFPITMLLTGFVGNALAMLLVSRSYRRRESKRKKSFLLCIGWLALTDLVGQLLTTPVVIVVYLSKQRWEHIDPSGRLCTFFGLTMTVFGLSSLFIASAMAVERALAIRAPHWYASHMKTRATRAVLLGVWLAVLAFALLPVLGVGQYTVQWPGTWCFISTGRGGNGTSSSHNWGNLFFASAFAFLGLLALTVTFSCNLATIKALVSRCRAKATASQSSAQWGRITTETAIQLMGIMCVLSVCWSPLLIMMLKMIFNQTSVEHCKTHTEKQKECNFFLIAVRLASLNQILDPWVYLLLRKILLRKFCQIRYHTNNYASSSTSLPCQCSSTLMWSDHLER
Method: as §1, §2, §3, §4

EP4 receptors = biological target: T5, EP4 receptors (Homo sapiens, UniProt P35408); experiment: Radioligand binding ([3H]PGE2), EP4; details: unit inferred; read-out: EP4 data KI
T5 construct: expressed in transfected cells; host or cells: HEK-293
Method: as §5, §6, §7

[1] = FLIPR Ca2+ signal, HEK-293(EBNA), read-out: FUNCTIONAL EC50 HEP2
[2] = FLIPR Ca2+ signal, HEK-293(EBNA), read-out: FUNCTIONAL EC50 HEP4
[3] = FLIPR Ca2+ signal, HEK-293(EBNA), read-out: FUNCTIONAL EC50 HEP3A
[4] = read-out: FUNCTIONAL Ca2+ EC50 HEP4

T2 sequence (P35408 whole entry): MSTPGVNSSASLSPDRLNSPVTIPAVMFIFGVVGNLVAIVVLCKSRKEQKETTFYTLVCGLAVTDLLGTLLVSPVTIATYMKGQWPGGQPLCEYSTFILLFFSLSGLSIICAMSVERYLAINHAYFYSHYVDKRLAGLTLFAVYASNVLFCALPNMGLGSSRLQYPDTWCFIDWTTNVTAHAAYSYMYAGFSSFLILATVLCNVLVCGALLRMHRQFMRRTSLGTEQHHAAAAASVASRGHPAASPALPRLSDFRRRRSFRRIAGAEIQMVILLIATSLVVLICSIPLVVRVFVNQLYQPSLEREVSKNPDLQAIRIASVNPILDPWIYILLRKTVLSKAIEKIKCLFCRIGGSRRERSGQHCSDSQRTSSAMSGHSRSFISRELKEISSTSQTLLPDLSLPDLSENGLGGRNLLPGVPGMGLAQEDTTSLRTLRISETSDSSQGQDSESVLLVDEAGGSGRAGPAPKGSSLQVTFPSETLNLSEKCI
T3 sequence (P43116 whole entry): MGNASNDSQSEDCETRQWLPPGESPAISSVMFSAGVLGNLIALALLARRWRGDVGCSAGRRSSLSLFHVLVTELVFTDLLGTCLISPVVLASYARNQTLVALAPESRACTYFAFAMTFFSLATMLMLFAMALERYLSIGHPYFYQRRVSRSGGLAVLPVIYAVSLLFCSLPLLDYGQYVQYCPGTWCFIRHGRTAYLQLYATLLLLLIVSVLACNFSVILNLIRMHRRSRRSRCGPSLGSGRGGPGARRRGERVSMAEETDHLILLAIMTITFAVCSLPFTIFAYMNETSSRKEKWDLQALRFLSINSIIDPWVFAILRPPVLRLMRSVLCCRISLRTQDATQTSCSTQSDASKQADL
T1 sequence (P43116 whole entry): as above
T5 sequence (P35408 whole entry): as the sequence (P35408 whole entry) above

| Structure (SMILES) | EC50 (hEP2/Gqs5; [1]) | EC50 (hEP4/Gqs5; [2]) | IC50 (human EP2 receptors) | further results |
| --- | --- | --- | --- | --- |
| COC(=O)CCCCCC[C@@H]1[C@@H](c2ccc(C(O)C(C)(C)C)cc2)[C@H](O)C[C@H]1Cl (some centres unmarked) [drawing 133] | 6580 nM | > 10 µM |  |  |
| CCCC1(C(O)c2cccc([C@H]3[C@H](O)CC(=O)[C@@H]3C/C=C\CCCC(=O)NCC)c2)CCC1 (some centres unmarked) | > 10000 nM | > 10 µM |  |  |
| COC(=O)CCC/C=C\C[C@H]1C(=O)C[C@@H](O)[C@@H]1c1ccc(C(O)C2CCCCC2)cc1 (some centres unmarked) | > 10000 nM | > 10 µM |  |  |
| CC(C)(CO)c1ccc([C@H]2[C@H](O)CC(=O)[C@@H]2CCCCCCC(=O)O)cc1 | 526 nM |  | 18.7 µM |  |
| CC(C)(C)C(O)c1ccc([C@@H]2[C@@H](CCCCCCC(=O)O)[C@H](Cl)C[C@H]2O)cc1 (some centres unmarked) | 1260 nM | > 10 µM | 3.63 µM |  |
| COC(=O)CCCCCC[C@@H]1[C@@H](c2ccc(CO)cc2)[C@H](O)C[C@H]1Cl |  | > 10 µM |  |  |
| COC(=O)CCC/C=C\C[C@@H]1[C@@H](c2ccc(C(O)C(C)C)cc2)[C@H](O)C[C@H]1Cl (some centres unmarked) | > 10000 nM | > 10 µM |  |  |
| COC(=O)CCC/C=C\C[C@@H]1[C@@H](c2ccc(C(C)(C)C)cc2)[C@H](O)C[C@H]1Cl | > 10000 nM |  |  | EC50 (hEP3A/Gqi5; [3]): > 10 µM |
| CCCCCC(O)c1ccc(N2C(=O)CC[C@@H]2/C=C/Cc2ccc(C(=O)O)s2)cc1 (some centres unmarked) [drawing 172] |  |  |  | EC50 (hEP3A/Gqi5; read-out: Other Receptors EC50 hEP3A): 1.41 µM |
| COC(=O)CCCCCC[C@@H]1[C@@H](c2ccc(C(C)(C)CO)cc2)[C@H](O)C[C@H]1Cl [drawing 115] | > 10000 nM | 26.3 µM |  |  |
| COC(=O)CCCCCC[C@@H]1[C@@H](c2ccc(C(O)C(C)(C)C)cc2)[C@H](O)C[C@H]1Cl (some centres unmarked) [drawing 131] | 5000 nM | > 10 µM |  |  |
| CCCC1(C(O)c2cccc([C@@H]3[C@@H](CCCCCCC(=O)O)[C@H](Cl)C[C@H]3O)c2)CCC1 (some centres unmarked) | 1480 nM |  |  | EC50 (hEP3A/Gqi5; [3]): 3.12 µM |
| CCCCCC(O)c1ccc(N2C(=O)CC[C@@H]2COc2ccc(C(=O)O)cc2)cc1 (some centres unmarked) [drawing 185] |  |  |  | Ki (human EP2 receptors): 22.7 µM; EC50 (hEP2/Gqs5; unit inferred, other columns of the table in nM, read-out: EP2 data flipr EC50): 7280 nM; Ki (EP4 receptors): 8.75 µM |
| COC(=O)CCC/C=C\C[C@@H]1[C@@H](c2ccc(C(C)(C)CO)cc2)[C@H](O)C[C@H]1Cl [drawing 117] | > 10000 nM |  | 48.8 µM |  |
| CC(C)(CO)c1ccc([C@@H]2[C@@H](C/C=C\CCCC(=O)O)[C@H](Cl)C[C@H]2O)cc1 [drawing 118] | 173 nM |  | 4.19 µM |  |
| CCCC1(C(O)c2cccc([C@H]3[C@H](O)CC(=O)[C@@H]3C/C=C\CCCC(=O)O)c2)CCC1 (some centres unmarked) | 5290 nM |  |  | EC50 (hEP3A/Gqi5; [3]): 1.7 µM |
| CCCC1(C(O)c2cccc([C@H]3[C@H](O)CC(=O)[C@@H]3C/C=C\CCCC(=O)OC)c2)CCC1 (some centres unmarked) | > 10000 nM | > 10 µM |  | EC50 (hEP3A/Gqi5; [3]): > 10 µM |
| COC(=O)CCCCCC[C@@H]1[C@@H](c2ccc(C(O)C(C)C)cc2)[C@H](O)C[C@H]1Cl (some centres unmarked) | > 10000 nM | > 10 µM |  |  |
| O=C(O)CCC/C=C\C[C@@H]1[C@@H](c2ccc(CO)cc2)[C@H](O)C[C@H]1Cl |  |  | 13.2 µM |  |
| COC(=O)CCCCCC[C@@H]1[C@@H](c2ccc(C(C)(C)CO)cc2)[C@H](O)C[C@H]1Cl [drawing 119] | > 10000 nM | > 10 µM |  |  |
| CC(C)(CO)c1ccc([C@@H]2[C@@H](CCCCCCC(=O)O)[C@H](Cl)C[C@H]2O)cc1 | 708 nM | > 10 µM | 8.95 µM |  |
| CCCCCC(O)c1ccc(N2C(=O)CC[C@@H]2COc2ccc(C(=O)O)cc2)cc1 (some centres unmarked) [drawing 157] |  |  |  | Ki (human EP2 receptors): 22.7 µM; Ki (EP4 receptors): 8.75 µM |
| CCCC1([C@@H](O)c2ccc([C@H]3CCC(=O)[C@@H]3C/C=C\CCCC(=O)O)cc2)CCC1 [drawing 194] |  |  |  | EC50 (hEP2/Gqs5; read-out: FUNCTIONAL Ca2+ EC50 HEP2): > 10000 nM; EC50 (hEP4/Gqs5; [4]): > 10 µM |
| CCCCCC(O)c1ccc([C@H]2CCC(=O)[C@@H]2CCCc2ccc(C(=O)O)s2)cc1 (some centres unmarked) |  |  |  | EC50 (hEP4/Gqs5; [4]): > 10 µM |
| O=C(O)CCC/C=C\C[C@H]1C(=O)C[C@@H](O)[C@@H]1c1ccc2c(c1)CCC2O (some centres unmarked) | 405 nM |  | 2.28 µM |  |
| COC(=O)CCC/C=C\C[C@@H]1[C@@H](c2ccc(C(C)(C)CO)cc2)[C@H](O)C[C@H]1Cl [drawing 113] |  | > 10 µM |  |  |
| CCCC1(C(O)c2cccc([C@@H]3[C@@H](Cc4cccc(OCC(=O)O)c4)[C@H](Cl)C[C@H]3O)c2)CCC1 (some centres unmarked) | 266 nM |  | 5.2 µM |  |
| CC(C)(C)C(O)c1ccc([C@@H]2[C@@H](C/C=C\CCCC(=O)O)[C@H](Cl)C[C@H]2O)cc1 (some centres unmarked) | 779 nM | > 10 µM | 1.54 µM |  |
